25 molecules from US20050026911A1, “Benzotriazapinone salts and methods for using same” (priority 2003, published 2005) can be followed below.

The structures appear in SMILES notation.

The experiment concerns the target T1, gastrin (CCK2) receptors (Rattus norvegicus, UniProt P30553).
T1 construct: The stomach was excised and flushed with ca. 1 ml of unbuffered physiological saline solution; from tissue; host or cells: isolated whole stomach of immature rats (ca. 21 days old)
T1 sequence (P30553 1-452): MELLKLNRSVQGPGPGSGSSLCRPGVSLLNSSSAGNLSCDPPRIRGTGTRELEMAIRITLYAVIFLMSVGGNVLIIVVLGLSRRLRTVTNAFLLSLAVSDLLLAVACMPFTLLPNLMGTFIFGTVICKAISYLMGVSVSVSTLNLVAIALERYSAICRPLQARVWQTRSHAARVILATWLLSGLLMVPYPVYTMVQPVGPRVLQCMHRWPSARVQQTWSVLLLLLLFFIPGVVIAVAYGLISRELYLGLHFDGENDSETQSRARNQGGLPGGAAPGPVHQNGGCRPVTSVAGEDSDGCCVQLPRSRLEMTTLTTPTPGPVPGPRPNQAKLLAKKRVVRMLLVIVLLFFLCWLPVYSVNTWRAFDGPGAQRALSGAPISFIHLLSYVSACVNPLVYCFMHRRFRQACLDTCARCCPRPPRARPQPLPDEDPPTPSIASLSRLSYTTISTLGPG
Put plainly: gastrin (CCK2) antagonist activity in an immature rat stomach assay. To be noted: pentagastrin dose-response curves, acid secretion, read-out: pKB rat stomach (converted). On the procedure:
The compounds of the examples were tested for gastrin (CCK2) antagonist activity in an immature rat stomach assay. The procedure was as follows:
The oesophagus of immature rats (33-50 g, ca. 21 days old) was ligated at the level of the cardiac sphincter and the duodenal sphincter was cannulated. The stomach was excised and flushed with ca. 1 ml of unbuffered physiological saline solution. The fundus was punctured and cannulated. A further 4-5 ml of unbuffered solution was flushed through the stomach to ensure the preparation was not leaking. […] The stomach was continuously perfused at a rate of 1 ml min^−1 with unbuffered solution gassed with 100% O2 with the perfusate passing over an internally referenced pH-electrode fixed 12 cm above the stomach.
After 120 min of stabilisation the drugs were added directly to the serosal solution in the organ bath and after a further 60 min cumulative pentagastrin dose-response curves were started.

In the case of `CC(C)(C)C(=O)CN1C(=O)N(CC(=O)Nc2cccc(Cc3nnn[nH]3)c2)N=C(C2CCCCC2)c2ccccc21` [Example 67, 2-[5-Cyclohexyl-1-(3,3-dimethyl-2-oxo-butyl)-2-oxo-1,2-dihydro-3H-1,3,4-benzotriazepin-3-yl]-N-[3-(1H-tetrazol-5-ylmethyl)-phenyl]-acetamide], the Kb was 77.6 nM. With `O=C(CN1N=C(C2CCCCC2)c2ccccc2N(CC(=O)N2CCOCC2)C1=O)Nc1cccc(C(=O)O)c1` [Example 68, 3-{2-[5-Cyclohexyl-1-(2-morpholin-4-yl-2-oxo-ethyl)-2-oxo-1,2-dihydro-3H-1,3,4-benzotriazepin-3-yl]-acetylamino}-benzoic acid], the Kb was 81.3 nM. With `CC(C)(C)C(=O)CN1C(=O)N(CC(=O)Nc2ccc3ccn(CC(=O)O)c3c2)N=C(C2CCCCC2)c2ccccc21` [Example 70, (6-{2-[5-Cyclohexyl-1-(3,3-dimethyl-2-oxo-butyl)-2-oxo-1,2-dihydro-3H-1,3,4-benzotriazepin-3-yl]-acetylamino}-indol-1-yl)-acetic acid] the figure was 0.851 nM; with `CC(C)(C)C(=O)CN1C(=O)N(CC(=O)Nc2cccc(CSCC(=O)O)c2)N=C(C2CCCCC2)c2ccccc21` [Example 71, (3-{2-[5-Cyclohexyl-1-(3,3-dimethyl-2-oxo-butyl)-2-oxo-1,2-dihydro-3H-1,3,4-benzotriazepin-3-yl]-acetylamino}-benzylsulfanyl)-acetic acid], 3.8 nM; with `CNc1cccc(NC(=O)CN2N=C(C3CCCCC3)c3ccccc3N(CC(=O)N3CCN(C)CC3)C2=O)c1` [Example 72, 2-{5-Cyclohexyl-1-[2-(4-methyl-piperazin-1-yl)-2-oxo-ethyl]-2-oxo-1,2-dihydro-3H-1,3,4-benzotriazepin-3-yl}-N-(3-methylamino-phenyl)-acetamide], 263 nM. With `CNc1cc(NC(=O)CN2N=C(C3CCCCC3)c3ccccc3N(CC(=O)C(C)(C)C)C2=O)cc(C(=O)O)c1` [Example 73, 3-{2-[5-Cyclohexyl-1-(3,3-dimethyl-2-oxo-butyl)-2-oxo-1,2-dihydro-3H-1,3,4-benzotriazepin-3-yl]-acetylamino}-5-methylamino-benzoic acid], the Kb is 67.6 nM. Regarding `CNc1cc(NC(=O)CN2N=C(C3CCCCC3)c3ccccc3N(CC(=O)C(C)(C)C)C2=O)cc(C(=O)OC)c1` [Example 74, 3-{2-[5-Cyclohexyl-1-(3,3-dimethyl-2-oxo-butyl)-2-oxo-1,2-dihydro-3H-1,3,4-benzotriazepin-3-yl]-acetylamino}-5-methylamino-benzoic acid methyl ester], the Kb was 372 nM. Regarding `CNc1cc(NC(=O)CN2N=C(C3CCCCC3)c3ccccc3N(CC(O)C(C)(C)C)C2=O)cc(C(=O)OC)c1` (stereo not shown) [Example 78, 3-{2-[5-Cyclohexyl-1 (−2-hydroxy-3,3-dimethyl-butyl)-2-oxo-1,2-dihydro-3H-1,3,4-benzotriazepin-3-yl]-acetylamino}-5-methylamino-benzoic acid methyl ester], the Kb is 324 nM.

Take `O=C(CN1N=C(C2CCCCC2)c2ccccc2N(CC(=O)C2CCCCC2)C1=O)Nc1cccc(C(=O)O)c1` [Example 79, 3-{2-[5-Cyclohexyl-1-(2-cyclohexyl-2-oxo-ethyl)-2-oxo-1,2-dihydro-3H-1,3,4-benzotriazepin-3-yl]-acetylamino}-benzoic acid]: the Kb was 2.51 nM. Under `O=C(O)Cc1cccc(NC(=O)CN2N=C(C3CCCCC3)c3ccccc3N(CC(=O)C3CCCCC3)C2=O)c1` [Example 80, (3-{2-[5-Cyclohexyl-1-(2-cyclohexyl-2-oxo-ethyl)-2-oxo-1,2-dihydro-3H-1,3,4-benzotriazepin-3-yl]-acetylamino}-phenyl)-acetic acid] stands 3.39 nM; under `O=C(O)Cc1cccc(NC(=O)CN2N=C(c3ccccn3)c3ccccc3N(CC(=O)C3CCCC3)C2=O)c1` [Example 81], 72.4 nM. As for `CC1(C(=O)CN2C(=O)N(CC(=O)Nc3cccc(CC(=O)O)c3)N=C(C3CCCCC3)c3ccccc32)CCCC1` [Example 82, [3-(2-{5-Cyclohexyl-1-[2-(1-methyl-cyclopentyl)-2-oxo-ethyl]-2-oxo-1,2-dihydro-3H-1,3,4-benzotriazepin-3-yl}-acetylamino)-phenyl]-acetic acid], the Kb is 9.55 nM.

In the case of `CC(C)(C)C(=O)CN1C(=O)N(CC(=O)Nc2cccc(O)c2)N=C(C2CCCCC2)c2ccccc21` [Example 84, 2-[5-Cyclohexyl-1-(3,3-dimethyl-2-oxo-butyl)-2-oxo-1,2-dihydro-3H-1,3,4-benzotriazepin-3-yl]-N-(3-hydroxy-phenyl)-acetamide], the Kb is 27.5 nM. Regarding `CC(C)(C)C(=O)CN1C(=O)N(CC(=O)Nc2cccc(SCc3nn[nH]n3)c2)N=C(C2CCCCC2)c2ccccc21` [Example 86, 2-[5-Cyclohexyl-1-(3,3-dimethyl-2-oxo-butyl)-2-oxo-1,2-dihydro-3H-1,3,4-benzotriazepin-3-yl]-N-[3-(4H-tetrazol-5-ylmethylsutfanyl)-phenyl]-acetamide], the Kb was 3.39 nM. As for `CC1(C(=O)CN2C(=O)N(CC(=O)Nc3cccc(-c4nc(=O)o[nH]4)c3)N=C(C3CCCCC3)c3ccccc32)CCCC1` [Example 87], the Kb was 3.16 nM. Consider `CC1(C(=O)CN2C(=O)N(CC(=O)Nc3cccc(C(=O)O)c3)N=C(C3CCCCC3)c3ccccc32)CCCC1` [Example 88, 3-(2-{5-Cyclohexyl-1-[2-(1-methyl-cyclopentyl)-2-oxo-ethyl]-2-oxo-1,2-dihydro-3H-1,3,4-benzotriazepin-3-yl}-acetylamino)-benzoic acid], for which the Kb is 11.7 nM. In the case of `CC(C)(C)C(=O)CN1C(=O)N(CC(=O)Nc2cccc(-n3ccnc3)c2)N=C(C2CCCCC2)c2ccccc21` [Example 89, 2-[5-Cyclohexyl-1-(3,3-dimethyl-2-oxo-butyl)-2-oxo-1,2-dihydro-3H-1,3,4-benzotriazepin-3-yl]-N-[3-(1H-imidazol-1-yl)-phenyl]-acetamide], the Kb is 871 nM. Take `Cc1cc(NC(=O)CN2N=C(C3CCCCC3)c3ccccc3N(CC(=O)C(C)(C)C)C2=O)cc(C(=O)O)c1` [Example 91, 3-{2-[5-Cyclohexyl-1-(3,3-dimethyl-2-oxo-butyl)-2-oxo-1,2-dihydro-3H-1,3,4-benzotriazepin-3-yl]-acetylamino}-5-methyl-benzoic acid]: the Kb is 40.7 nM. Under `CC(C)(C)C(=O)CN1C(=O)N(CC(=O)Nc2ccc3ncn(CC(=O)O)c3c2)N=C(C2CCCCC2)c2ccccc21` [Example 94, (6-{2-[5-Cyclohexyl-1-(3,3-dimethyl-2-oxo-butyl)-2-oxo-1,2-dihydro-3H-1,3,4-benzotriazepin-3-yl]-acetylamino)-benzimidazol-1-yl)-acetic acid] stands 155 nM; under `CC(C)(C)OC(=O)CN1C(=O)N(CC(=O)Nc2cccc(C(=O)O)c2)N=C(C2CCCCC2)c2ccccc21` [Example 95, 3-[2-(1-tert-Butoxycarbonylmethyl-5-cyclohexyl-2-oxo-1,2-dihydro-3H-1,3,4-benzotriazepin-3-yl)-acetylamino]-benzoic acid], 3.98 nM. `CN(CC(=O)O)c1cccc(NC(=O)CN2N=C(C3CCCCC3)c3ccccc3N(CC(=O)C(C)(C)C)C2=O)c1` [Example 96, [(3-{2-[5-Cyclohexyl-1-(3,3-dimethyl-2-oxo-butyl)-2-oxo-1,2-dihydro-3H-1,3,4-benzotriazepin-3-yl]-acetylamino}-phenyl)-methyl-amino]-acetic acid]: the Kb was 7.24 nM. Under `CC(C)(C)C(=O)CN1C(=O)N(CC(=O)Nc2ccc3cnn(CC(=O)O)c3c2)N=C(C2CCCCC2)c2ccccc21` [Example 99, (6-{2-[5-Cyclohexyl-1-(3,3-dimethyl-2-oxo-butyl)-2-oxo-1,2-dihydro-3H-1,3,4-benzotriazepin-3-yl]-acetylamino}-indazol-1-yl)-acetic acid] stands 14.1 nM; under `O=C(O)CSc1cccc(NC(=O)CN2N=C(C3CCCCC3)c3ccccc3N(CC(=O)C3CCCCC3)C2=O)c1` [Example 100, (3-{2-[5-Cyclohexyl-1-(2-cyclohexyl-2-oxo-ethyl)-2-oxo-1,2-dihydro-3H-1,3,4-benzotriazepin-3-yl]-acetylamino}-phenylsulfanyl)-acetic acid], 0.575 nM. Under `CNc1ccccc1NC(=O)CN1N=C(C2CCCCC2)c2ccccc2N(CC(=O)C(C)(C)C)C1=O` [Example 101, 2-[5-Cyclohexyl-1-(3,3-dimethyl-2-oxo-butyl)-2-oxo-1,2-dihydro-3H-1,3,4-benzotriazepin-3-yl]-N-(2-methylamino-phenyl)-acetamide] stands 129 nM; under `CC1CCC(C2=NN(CC(=O)Nc3cccc(C(=O)O)c3)C(=O)N(CC(=O)C(C)(C)C)c3ccccc32)CC1` (stereo not shown) [Example 102, 3-{2-[1-(3,3-Dimethyl-2-oxo-butyl)-5-(4-methyl-cyclohexyl)-2-oxo-1,2-dihydro-3H-1,3,4-benzotriazepin-3-yl]-acetylamino}-benzoic acid], 0.776 nM.
